# Measured values as given in PMC7645366 (EMBO Molecular Medicine, 2020).
# Where “and” joins values, the source holds several entries; their conditions need not be identical. Equal entries are not always repeated. Where two headings read alike, the source gives them in different places. No end group written: not given here.
# Legend:
# LLO [1] = molecular target: T1, LLO (Listeria monocytogenes serovar 1/2a, UniProt P13128); assay: ELISA, binding of plate-bound MRC-1 peptides to LLO; details: plate-bound peptide, LLO 0–0.5 μM
# Procedure: (§1) Briefly, 96‐well flat‐bottomed plates (Sigma, UK) were coated overnight with 10 μM of MRC‐1 peptides in coating buffer (15 mM Na2CO3, 35 mM NaHCO3, pH 9.6). Wells were blocked with 200 μl of 10% (v/v) FBS in PBS for 2 h and then washed three times with PBS, 0.05% (v/v) Tween 20 (Sigma). 50 μl of purified PLY, LLO, and SLO (0–1 μM) in PBS was added and incubated at 37°C for 1 h. 1 μM BSA was added to control wells. Wells were washed with PBS and bound proteins were detected by adding 100 μl of mouse α‐PLY (1:1,000), mouse α‐SLO (1:400), and rabbit α‐LLO (1:1,500) (Abcam), respectively, in blocking buffer. Plates were incubated with 100 μl of secondary anti‐rabbit/anti‐mouse IgG HRP (1:2,000) dilution in blocking buffer. Bound antibodies were detected by adding 100 μl of tetramethylbenzidine substrate solution for 30 min. Phosphoric acid (1 M) was used as the stop solution and absorbance was measured at 450 nm.
# BSA = assay: ELISA, binding of plate-bound MRC-1 peptides to BSA (negative control); details: plate-bound peptide
# Procedure: as §1
# SLO [2] = molecular target: T2, SLO (Streptococcus pyogenes serotype M1, UniProt P0C0I3); assay type: cell-based
# S. pyogenes type M1T1 [3] = assay: Hemolytic activity of whole bacteria, S. pyogenes; assay type: cell-based, Streptococcus pyogenes; details: 100 μM peptide
# Procedure: All samples were assayed in triplicates.
# LLO [4] = molecular target: T1, LLO; assay: LDH cytotoxicity assay, THP-1 macrophages, LLO; assay type: cell-based; details: 100 μM, 18 h; for % cytotoxicity relative to positive control (lysis buffer), LDH: THP-1, LLO 0.5 μg/ml
# Procedure: (§2) Human monocytic leukemia THP‐1 cells (ATCC TIB‐202) were cultivated in R10 medium and maintained at density of 10^6 cells/ml. For differentiation into macrophages, THP‐1 cells were treated for 48 h with 20 ng/ml of phorbol myristate acetate (Sigma).
# Cytotoxicity was determined by measuring the activity of lactate dehydrogenase enzyme released into the culture supernatant using the Cytotoxicity Detection kit (Roche) according to the manufacturer's instructions. The percentage cytotoxicity was calculated by ratio to 100% lysis control (0.1% saponin).
# PLY [5] = molecular target: T3, PLY (Streptococcus pneumoniae serotype 4, UniProt P0C2J9); assay type: cell-based
# LLO [6] = molecular target: T1, LLO; assay: Live imaging of cytolysis of THP-1 macrophages by LLO; assay type: cell-based; details: 0.5 μg/ml LLO, 100 μM, 20 min
# [7] = tested on: PLY‐producing pneumococcal strain T4; assay: Binding of FITC-labeled peptides to pneumococci, fluorescence microscopy; parameters: species or system Streptococcus pneumoniae
# PLY [8] = molecular target: T3, PLY; assay type: cell-based; remark: listed apart in the source
# LLO [9] = molecular target: T1, LLO; assay: Cytokine ELISA, THP-1 macrophages stimulated with LLO; assay type: cell-based; details: 18 h; for IL-8 levels in THP-1 macrophages: LLO 0.5 μg/ml, 100uM
# Procedure: as §2
# SLO [10] = molecular target: T2, SLO; assay type: cell-based; remark: listed apart in the source
# PLY [11] = molecular target: T3, PLY; assay type: cell-based; remark: listed apart in the source
# PLY [12] = molecular target: T3, PLY; assay type: cell-based; remark: listed apart in the source
# PLY [13] = molecular target: T3, PLY; assay type: cell-based; remark: listed apart in the source
# S. pneumoniae T4 = assay: Bacterial invasion assay, 3D lung epithelial models, CFU after gentamicin; assay type: cell-based, Streptococcus pneumoniae; details: for Mean Colonies at 100X dil, bacterial invasion of lung epithelium models / % entry bacteria= (bacteria uptaken/Input)*100: T4, MOI 10, 2h, 100 μM peptide
# S.pneumoniae T4R = assay: Co-localization of intracellular T4R with MRC-1 and LC3B in DCs; assay type: cell-based, Streptococcus pneumoniae; details: for % bacteria colocalized with MRC-1 / % bacteria colocalized with LC3B / number of bacteria (of n=50) colocalized with LC3B / number of bacteria (of n=50) colocalized with MRC-1: T4R in DCs
# S.pneumoniae T4RΔply = assay: Co-localization of intracellular T4RΔply with MRC-1 and LC3B in DCs; assay type: cell-based, Streptococcus pneumoniae; details: for % bacteria colocalized with MRC-1 / % bacteria colocalized with LC3B / number of bacteria (of n=50) colocalized with LC3B / number of bacteria (of n=50) colocalized with MRC-1: T4RΔply in DCs
# S. pyogenes type M1T1 [14] = assay: Co-localization of intracellular S. pyogenes with MRC-1 and LC3B in DCs; assay type: cell-based, Streptococcus pyogenes; details: 100 μM peptide
# LC3B = assay type: cell-based, human
# PLY [15] = molecular target: T3, PLY; details: for % cytotoxicity relative to positive control (lysis buffer), LDH: 18 h
# SLO [16] = molecular target: T2, SLO
# LLO [17] = molecular target: T1, LLO; assay: Hemolysis assay with purified LLO; details: 1 μg/ml toxin
# Procedure: Human blood from anonymous healthy donors (obtained from Karolinska University Hospital) was diluted 1:100 in PBS with 0.5 mM DTT and mixed 1:1 with twofold serial dilutions of 10^8 CFUs of bacteria or 1 μg/ml purified bacterial toxins in 96‐well plates. The MRC‐1 peptides were serially diluted 10‐fold (1–1,000 μM) in PBS and added to the wells prior to addition of blood. The blood was co‐incubated with whole bacteria or purified toxins at 37°C for 1 h, and after 50 min, 0.1% triton X‐100 was added to the positive control wells. Cells were spun down at 400 g for 15 min and the absorbance of the supernatants was measured at 540 nm in a microplate reader. Percentage of lysis compared to the toxin alone was calculated. All samples were assayed in triplicates.
# [18] = Lung histology (H&E) and clinical symptoms after intranasal administration; details: mice
# Procedure: (F) Hematoxylin and eosin (H&E) staining of mouse lungs at 24 h post intranasal
# T3 sequence (P0C2J9 whole entry, looked up): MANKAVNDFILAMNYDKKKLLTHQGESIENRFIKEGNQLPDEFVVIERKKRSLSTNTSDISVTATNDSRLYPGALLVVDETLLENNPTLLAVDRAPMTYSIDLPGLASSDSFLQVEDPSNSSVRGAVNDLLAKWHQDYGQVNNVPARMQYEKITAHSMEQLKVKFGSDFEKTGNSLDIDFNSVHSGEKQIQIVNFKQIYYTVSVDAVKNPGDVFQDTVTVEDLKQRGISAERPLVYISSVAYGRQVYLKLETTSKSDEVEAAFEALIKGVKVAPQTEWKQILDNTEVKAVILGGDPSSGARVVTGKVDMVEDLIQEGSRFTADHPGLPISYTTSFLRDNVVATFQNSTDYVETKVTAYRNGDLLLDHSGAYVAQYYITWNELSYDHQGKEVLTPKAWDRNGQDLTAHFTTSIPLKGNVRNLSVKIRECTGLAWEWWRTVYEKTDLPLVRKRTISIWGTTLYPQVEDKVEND
# T2 sequence (P0C0I3 34-571 limits assumed): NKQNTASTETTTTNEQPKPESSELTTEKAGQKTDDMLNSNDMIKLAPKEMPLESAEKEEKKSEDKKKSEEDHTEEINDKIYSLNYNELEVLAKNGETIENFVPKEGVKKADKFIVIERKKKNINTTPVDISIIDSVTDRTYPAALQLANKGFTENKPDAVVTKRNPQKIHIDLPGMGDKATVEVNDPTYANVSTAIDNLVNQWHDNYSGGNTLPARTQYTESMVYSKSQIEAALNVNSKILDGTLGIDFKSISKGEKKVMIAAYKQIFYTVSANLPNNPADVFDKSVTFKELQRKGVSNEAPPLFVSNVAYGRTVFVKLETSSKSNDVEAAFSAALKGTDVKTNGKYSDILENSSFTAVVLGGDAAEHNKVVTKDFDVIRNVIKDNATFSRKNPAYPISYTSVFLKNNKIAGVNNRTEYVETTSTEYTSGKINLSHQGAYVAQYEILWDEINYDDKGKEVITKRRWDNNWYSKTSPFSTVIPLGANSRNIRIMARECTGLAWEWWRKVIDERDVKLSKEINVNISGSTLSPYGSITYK
# T1 sequence (P13128 25-529): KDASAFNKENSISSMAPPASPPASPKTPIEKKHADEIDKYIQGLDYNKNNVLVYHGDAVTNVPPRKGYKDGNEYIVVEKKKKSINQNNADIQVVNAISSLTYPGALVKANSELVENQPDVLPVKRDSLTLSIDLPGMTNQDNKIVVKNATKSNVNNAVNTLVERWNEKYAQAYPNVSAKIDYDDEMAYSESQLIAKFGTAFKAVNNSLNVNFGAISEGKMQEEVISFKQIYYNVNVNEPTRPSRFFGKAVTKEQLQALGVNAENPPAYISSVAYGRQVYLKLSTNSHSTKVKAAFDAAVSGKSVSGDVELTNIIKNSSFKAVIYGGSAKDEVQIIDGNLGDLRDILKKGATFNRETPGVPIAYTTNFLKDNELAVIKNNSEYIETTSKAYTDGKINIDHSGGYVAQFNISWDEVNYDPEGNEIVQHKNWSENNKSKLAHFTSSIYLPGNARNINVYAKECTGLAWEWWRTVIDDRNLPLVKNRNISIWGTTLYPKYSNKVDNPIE
sequence,measurement,setting,value
FTWSDGSPVSYEN [P2],binding to LLO in ELISA,LLO [1],bound dose‐dependently
same,binding to BSA in ELISA,BSA,not to BSA
same,inhibition of hemolysis induced by purified SLO,SLO [2],up to 50%
same,IC50,"SLO [2]; read-out: ED50 (median effective dose) vs purified SLO, human, blood, 60 min",9.8 µM
same,hemolytic activity of S. pyogenes type M1T1,S. pyogenes type M1T1 [3],significantly reduced
same,"cell death of macrophages induced by LLO, LDH release","LLO [4]; THP-1, 0.5 μg/ml toxin",significantly reduced cell death
same,"% cytotoxicity relative to positive control (lysis buffer), LDH",LLO [4]; experiment 1 of 4,50.96%
same,"% cytotoxicity relative to positive control (lysis buffer), LDH",LLO [4]; experiment 2 of 4,55.95%
same,"% cytotoxicity relative to positive control (lysis buffer), LDH",LLO [4]; experiment 3 of 4,54.18%
same,"% cytotoxicity relative to positive control (lysis buffer), LDH",LLO [4]; experiment 4 of 4,52.24%
same,cytolysis by PLY in live imaging,PLY [5],protection from cytolysis
same,cytolysis by LLO in live imaging,LLO [6],protected the cells from cytolysis
same,binding of FITC-labeled peptide to PLY mutant T4Δply,[7]; fluorescence microscopy,not to the PLY‐deficient strain
same,binding of FITC-labeled peptide to pneumococcal strain T4,[7]; fluorescence microscopy,bound to T4
same,binding of FITC-labelled peptide to capsular mutant strain T4R,"[7]; response to reviewers, Figure 4",binds to T4R
same,"release of IL‐8, TNF‐α and IL‐12 by THP-1 macrophages, PLY",PLY [8],significantly reduced
same,"release of IL‐8, TNF‐α and IL‐12 by THP-1 macrophages, LLO","LLO [9]; 0.5 μg/ml toxin, 100 μM peptide",significantly reduced
same,IL-8 levels in THP-1 macrophages,LLO [9]; experiment 1 of 3,437.8 pg/mL
same,IL-8 levels in THP-1 macrophages,LLO [9]; experiment 2 of 3,441.8 pg/mL
same,IL-8 levels in THP-1 macrophages,LLO [9]; experiment 3 of 3,448.5 pg/mL
same,"release of IL‐8, TNF‐α and IL‐12 by THP-1 macrophages, SLO",SLO [10],significantly reduced
same,IL-8 levels in THP-1 macrophages,"SLO [10]; 100uM, 18 h",426.5 pg/mL and 475.1 pg/mL and 490.7 pg/mL
same,loss of GFP expression in 3D lung epithelial model,PLY [11],significantly lower
same,LDH release of 3D lung tissue model,PLY [12],significantly reduced
same,release of IL‐8 and TNF‐α in lung tissue model,PLY [13],significantly reduced release
same,number of invading bacteria in 3D lung epithelial model,"S. pneumoniae T4; T4, 100 μM peptide, 2 h",significantly reduced
same,"Mean Colonies at 100X dil, bacterial invasion of lung epithelium models",S. pneumoniae T4; biological replicate n=1,13.3
same,% entry bacteria= (bacteria uptaken/Input)*100,S. pneumoniae T4; n=1,2.25%
same,% entry bacteria= (bacteria uptaken/Input)*100,S. pneumoniae T4; n=2,2.59%
same,"Mean Colonies at 100X dil, bacterial invasion of lung epithelium models",S. pneumoniae T4; n=2,15.3
same,% entry bacteria= (bacteria uptaken/Input)*100,S. pneumoniae T4; n=3,2.54%
same,"Mean Colonies at 100X dil, bacterial invasion of lung epithelium models",S. pneumoniae T4; n=3,15
same,co-localization of intracellular T4R with MRC‐1 and LC3B,"S.pneumoniae T4R; DCs, 100 μM peptide","did not co‐localize with MRC‐1, but co‐stained with LC3B"
same,% bacteria colocalized with MRC-1,"S.pneumoniae T4R; MOI 10, 100 μM peptide, n=50 bacteria, experiment 1 of 2",30%
same,% bacteria colocalized with LC3B,S.pneumoniae T4R; experiment 1 of 2,70%
same,number of bacteria (of n=50) colocalized with LC3B,S.pneumoniae T4R; experiment 1 of 2,35
same,number of bacteria (of n=50) colocalized with MRC-1,S.pneumoniae T4R; experiment 1 of 2,15
same,% bacteria colocalized with LC3B,S.pneumoniae T4R; experiment 2 of 2,76%
same,% bacteria colocalized with MRC-1,S.pneumoniae T4R; experiment 2 of 2,24%
same,number of bacteria (of n=50) colocalized with LC3B,S.pneumoniae T4R; experiment 2 of 2,38
same,number of bacteria (of n=50) colocalized with MRC-1,S.pneumoniae T4R; experiment 2 of 2,12
same,co-localization of T4RΔply in DCs,"S.pneumoniae T4RΔply; DCs, 100 μM peptide, MOI 10, 2 h",had no effect
same,% bacteria colocalized with MRC-1,"S.pneumoniae T4RΔply; 100 μM peptide, n=50 bacteria, experiment 1 of 2",6%
same,% bacteria colocalized with LC3B,S.pneumoniae T4RΔply; experiment 1 of 2,94%
same,number of bacteria (of n=50) colocalized with LC3B,S.pneumoniae T4RΔply; experiment 1 of 2,47
same,number of bacteria (of n=50) colocalized with MRC-1,S.pneumoniae T4RΔply; experiment 1 of 2,3
same,% bacteria colocalized with LC3B,S.pneumoniae T4RΔply; experiment 2 of 2,92%
same,% bacteria colocalized with MRC-1,S.pneumoniae T4RΔply; experiment 2 of 2,8%
same,number of bacteria (of n=50) colocalized with LC3B,S.pneumoniae T4RΔply; experiment 2 of 2,46
same,number of bacteria (of n=50) colocalized with MRC-1,S.pneumoniae T4RΔply; experiment 2 of 2,4
same,co-staining of intracellular S. pyogenes M1T1 with LC3B,S. pyogenes type M1T1 [14],co‐stained with LC3B
same,"expression of LC3B-I and LC3B-II, western blotting",LC3B,induced higher expression
same,"cell death of macrophages induced by PLY, LDH release",PLY [15],significantly reduced cell death
same,"% cytotoxicity relative to positive control (lysis buffer), LDH",PLY [15]; 100 μM,50.12% and 52.81% and 49.35%
same,"% cytotoxicity relative to positive control (lysis buffer), LDH",PLY [15],52.47%
same,"cell death of macrophages induced by SLO, LDH release",SLO [16],significantly reduced cell death
same,inhibition of hemolysis induced by purified LLO,LLO [17]; at concentrations ranging from 10 to 100 μM,up to 50%
same,IC50,"LLO [17]; read-out: ED50 (median effective dose) vs purified LLO, hemolysis, regression analysis",22.3 µM
same,toxicity by lung histology analysis (H&E),"[18]; 24 h post intranasal administration, 5 µg peptide/mouse",not toxic
same,clinical symptoms,[18]; 24 h post‐administration,did not develop any clinical symptoms
